Measured values from ChEMBL document CHEMBL1140961, “Synthesis and biological activity of some new benzoxazoles” (2008).
Converted amounts (≈) assume the structure as drawn.

Key:
Format in all cases: functional
Bacillus subtilis [1] = assay: Antimicrobial activity against Bacillus subtilis isolate after 24 hrs by disk diffusion method
Pseudomonas aeruginosa = assay: Antimicrobial activity against Pseudomonas aeruginosa ATCC […] after 24 hrs by disk diffusion method
Klebsiella pneumoniae [2] = assay: Antimicrobial activity against Klebsiella pneumoniae RSHM 574 after 24 hrs by disk diffusion method
Bacillus subtilis [3] = assay: Antimicrobial activity against Bacillus subtilis ATCC 6633 after 24 hrs by disk diffusion method
Candida albicans [4] = assay: Antimicrobial activity against Candida albicans ATCC 10231 after 24 to 48 hrs after 24 hrs by disk diffusion method
Escherichia coli [5] = assay: Antimicrobial activity against Escherichia coli isolate after 24 hrs by disk diffusion method
Candida albicans [6] = assay: Antimicrobial activity against Candida albicans isolate after 24 to 48 hrs after 24 hrs by disk diffusion method
Escherichia coli [7] = assay: Antimicrobial activity against Escherichia coli ATCC 25922 after 24 hrs by disk diffusion method
Staphylococcus aureus [8] = assay: Antimicrobial activity against Staphylococcus aureus ATCC 25923 after 24 hrs by disk diffusion method
Klebsiella pneumoniae [9] = assay: Antimicrobial activity against Klebsiella pneumoniae after 24 hrs by disk diffusion method
Staphylococcus aureus [10] = assay: Antimicrobial activity against Staphylococcus aureus isolate after 24 hrs by disk diffusion method

Molecule	MIC (Bacillus subtilis [1]) [µg/mL]	MIC (Pseudomonas aeruginosa; ATCC 25853, 24 h) [µg/mL]	MIC (Klebsiella pneumoniae [2]) [µg/mL]	MIC (Bacillus subtilis [3]; ATCC 6633, 24 h) [µg/mL]	MIC (Candida albicans [4]) [µg/mL]	MIC (Escherichia coli [5]) [µg/mL]	MIC (Candida albicans [6]) [µg/mL]	MIC (Escherichia coli [7]; ATCC 25922, 24 h) [µg/mL]	MIC (Staphylococcus aureus [8]; ATCC 25923, 24 h) [µg/mL]	MIC (Klebsiella pneumoniae [9]) [µg/mL]	MIC (Staphylococcus aureus [10]) [µg/mL]	MIC (Pseudomonas aeruginosa) [µg/mL]	MIC (Bacillus subtilis [3]) [µg/mL]	MIC (Escherichia coli [7]) [µg/mL]	MIC (Staphylococcus aureus [8]) [µg/mL]
CCS(=O)(=O)c1ccc2oc(-c3cccc(C)c3C)nc2c1	31.2 (≈ 99.1 µM)	62.5 (≈ 198 µM)	31.2 (≈ 99.1 µM)	15.6 (≈ 49.5 µM)	31.2 (≈ 99.1 µM)	250 (≈ 793 µM)	62.5 (≈ 198 µM)	62.5 (≈ 198 µM)	125 (≈ 396 µM)	125 (≈ 396 µM)	125 (≈ 396 µM)	–	–	–	–
CC1COc2c(N3CCN(C)CC3)c(F)cc3c(=O)c(C(=O)O)cn1c23 (configuration not stated) [OFLOXACIN]	32 (≈ 88.6 µM)	8 (≈ 22.1 µM)	0.25 (≈ 0.692 µM)	0.125 (≈ 0.346 µM)	–	32 (≈ 88.6 µM)	–	0.125 (≈ 0.346 µM)	0.25 (≈ 0.692 µM)	64 (≈ 177 µM)	2 (≈ 5.53 µM)	–	–	–	–
C[C@@H]1[C@H](O)[C@@H](C)/C=C/C=C/C=C/C=C/C=C/C=C/C=C/[C@H](O[C@@H]2O[C@H](C)[C@@H](O)[C@H](N)[C@@H]2O)C[C@@H]2O[C@](O)(C[C@@H](O)C[C@@H](O)[C@H](O)CC[C@@H](O)C[C@@H](O)CC(=O)O[C@H]1C)C[C@H](O)[C@H]2C(=O)O [AMPHOTERICIN B]	–	–	–	–	1 (≈ 1.08 µM)	–	1 (≈ 1.08 µM)	–	–	–	–	–	–	–	–
CCS(=O)(=O)c1ccc2oc(Cc3ccc(C)cc3)nc2c1	31.2 (≈ 99.1 µM)	62.5 (≈ 198 µM)	62.5 (≈ 198 µM)	31.2 (≈ 99.1 µM)	62.5 (≈ 198 µM)	125 (≈ 396 µM)	62.5 (≈ 198 µM)	62.5 (≈ 198 µM)	125 (≈ 396 µM)	125 (≈ 396 µM)	125 (≈ 396 µM)	–	–	–	–
CCS(=O)(=O)c1ccc2oc(-c3ccccc3Cl)nc2c1	31.2 (≈ 97.1 µM)	62.5 (≈ 194 µM)	31.2 (≈ 97.1 µM)	15.6 (≈ 48.5 µM)	31.2 (≈ 97.1 µM)	125 (≈ 388 µM)	62.5 (≈ 194 µM)	62.5 (≈ 194 µM)	125 (≈ 388 µM)	125 (≈ 388 µM)	125 (≈ 388 µM)	–	–	–	–
CCS(=O)(=O)c1ccc2oc(-c3cc(Br)ccc3Cl)nc2c1	31.2 (≈ 78 µM)	62.5 (≈ 156 µM)	62.5 (≈ 156 µM)	62.5 (≈ 156 µM)	62.5 (≈ 156 µM)	125 (≈ 312 µM)	62.5 (≈ 156 µM)	62.5 (≈ 156 µM)	125 (≈ 312 µM)	125 (≈ 312 µM)	125 (≈ 312 µM)	–	–	–	–
GENTAMICIN SULFATE	512	–	8	–	–	1	–	–	–	64	1020	2	1	0.5	0.06
CCS(=O)(=O)c1ccc2oc(-c3ccc(F)cc3)nc2c1	31.2 (≈ 102 µM)	62.5 (≈ 205 µM)	31.2 (≈ 102 µM)	31.2 (≈ 102 µM)	125 (≈ 409 µM)	62.5 (≈ 205 µM)	31.2 (≈ 102 µM)	62.5 (≈ 205 µM)	125 (≈ 409 µM)	125 (≈ 409 µM)	125 (≈ 409 µM)	–	–	–	–
CCS(=O)(=O)c1ccc2oc(-c3ccc(C)cc3)nc2c1	31.2 (≈ 104 µM)	62.5 (≈ 207 µM)	62.5 (≈ 207 µM)	31.2 (≈ 104 µM)	125 (≈ 415 µM)	62.5 (≈ 207 µM)	31.2 (≈ 104 µM)	62.5 (≈ 207 µM)	125 (≈ 415 µM)	31.2 (≈ 104 µM)	125 (≈ 415 µM)	–	–	–	–
CCS(=O)(=O)c1ccc2oc(Cc3ccc(F)cc3)nc2c1	31.2 (≈ 97.9 µM)	62.5 (≈ 196 µM)	31.2 (≈ 97.9 µM)	62.5 (≈ 196 µM)	62.5 (≈ 196 µM)	125 (≈ 391 µM)	31.2 (≈ 97.9 µM)	62.5 (≈ 196 µM)	125 (≈ 391 µM)	125 (≈ 391 µM)	125 (≈ 391 µM)	–	–	–	–
CC1(C)S[C@@H]2[C@H](NC(=O)[C@H](N)c3ccccc3)C(=O)N2[C@H]1C(=O)O.O.O.O [AMPICILLIN TRIHYDRATE]	8	4100	2	0.25	–	256	–	8	0.03	256	2	–	–	–	–
CCS(=O)(=O)c1ccc2oc(-c3ccccc3)nc2c1	31.2 (≈ 109 µM)	62.5 (≈ 218 µM)	125 (≈ 435 µM)	62.5 (≈ 218 µM)	125 (≈ 435 µM)	62.5 (≈ 218 µM)	31.2 (≈ 109 µM)	62.5 (≈ 218 µM)	125 (≈ 435 µM)	125 (≈ 435 µM)	125 (≈ 435 µM)	–	–	–	–
